The source of these data is article PMC9145393, “Design, Semisynthesis, and Estrogenic Activity of Lignan Derivatives from Natural Dibenzylbutyrolactones” (Pharmaceuticals, 2022).

Where “and” joins values, the source holds several entries; their conditions need not be identical. Identical values can stand only once. Like-named read-outs stand apart in the source and are kept apart here. A value given as a limit tells only on which side of the number the result lay.

The subject of assay [1] is ER-dependent transcriptional activity in T47D-KBluc cells. Briefly: ERE-luciferase reporter in T47D-KBluc cells, agonist assessment (absence of E2). In kind it is cell-based, human. Set-up: Emax: dose or concentration left out as unconfirmed. To be noted: for Emax: Homo sapiens, read-out: E/Emax (%) VEH; for E/Emax (%) VEH: lignans 5 μM, absence of E2 (VEH), relative to Emax induced by 0.1 nM E2, Mean ± SEM. The method, then: (§1) Lactols (5) and (6) were tested as a mixture of the two epimers obtained.
(§2) Chemical screening was carried out by using T47D-KBluc cells, an ER+ BC cell line that is stably transfected with the pGL2.TATA.Inr.Luc.neo containing three ER-responsive elements (ERE). The T47D-KBluc cells were maintained in standard growth media as detailed above. Dosing media was further modified by reduction of DCC-FBS to 5%. […] Chemical screening was also carried out by using the triple negative BC cell line MDA-kb2 cells that stably expresses pMMTV.neo.luc gene, an AR- and GR-responsive reporter gene. […] The T47D-KBluc cells or the MDA-kb2 cells were seeded at 100,000 cells per well in 24-well plates (Nunclon, Sigma-Aldrich, Darmstadt, Germany ) and allowed to attach overnight. Then, the media was replaced with 1 mL/well of dosing media and test compounds incubated 24 h. Then, the cells were harvested in 100 µL passive lysis buffer (Promega, Madison, WI, USA) per well. The relative light units (RLUs), which correspond to luciferase activity from each sample, were measured by using Luciferase Assay Reagent (Promega) in a Clarity luminescence microplate reader (BIOTEK, Winooski, VT, USA). The RLUs from each sample were normalized by protein concentration and converted to fold induction with respect to vehicle-treated control. […] Then, the percent of efficacy (E) of each tested compound, as compared with Emax, was calculated. […] Data are expressed as mean ± SEM of triplicate independent experiments, where each treatment was assayed in triplicate. […] Duplicate plates were dosed in parallel to control the effects of compounds on cell viability. The protein concentration was measured in cell lysate using colorimetric assay reagent (BioRad, CA, USA).
(A reporter such as luciferase makes a cellular process visible.)

The next assay addresses T1, rhERα-LBD (Homo sapiens, UniProt P03372).
T1 sequence (P03372 311-547 limits assumed): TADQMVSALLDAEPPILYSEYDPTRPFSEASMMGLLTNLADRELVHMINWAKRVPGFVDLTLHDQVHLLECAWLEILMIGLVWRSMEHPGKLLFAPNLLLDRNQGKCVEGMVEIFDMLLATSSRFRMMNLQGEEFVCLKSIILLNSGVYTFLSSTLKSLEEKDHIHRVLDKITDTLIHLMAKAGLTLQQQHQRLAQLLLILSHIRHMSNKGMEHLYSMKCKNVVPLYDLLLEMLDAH
Briefly: LanthaScreen TR-FRET competitive binding assay. To be noted: 10-point competition curves, Mean ± SE. How it is done: Next, the binding of lignan derivatives to the LBD of rhERα was analyzed by using time-resolved fluorescence resonance energy transfer (TR-FRET) competitive binding assay. […] The LanthaScreen^TM TR-FRET Nuclear Receptor (NR) binding assay (SelectScreen^TM Profiling Service, Life Technologies, Carlsbad, CA, USA) was used for screening of potential binding of lignan derivatives to human ERα [33]. Briefly, the kit uses the recombinant human ERα (rhERα) protein and a tight binding, selective fluorescent ligand, Fluormone^TM tracer. […] The rhERα protein and the tracer form rhERα/tracer complex, resulting in a high FP value. […] Dose-response competition curves were fitted by nonlinear regression analyses in the GraphPad software 8 (GraphPad Software, San Diego, CA, USA) to obtain IC50 values.
Data are expressed as mean ± SEM for from at least three independent experiments, where each concentration is tested in triplicate.
In general terms: Time-resolved FRET reads energy transfer from a long-lived donor to a nearby acceptor.

For another assay, the system named is T47D cells. Briefly: MTT cell viability, E2-depleted T47D cells. The format is cell-based, human. The conditions noted are these: 10 μM, 24 h, absence of E2. The method, then:
The effects of lignan derivatives were evaluated on human ER+ BC cells.
Cells were maintained in RPMI (Lonza, Basel, Switzerland) growth media, without phenol red, supplemented with 10% fetal bovine serum (FBS) (Lonza), 2 mM glutamine, 10 mM HEPES, 1 mM sodium pyruvate, 100 UI/mL penicillin and 100 μg/mL streptomycin. Cells were growth in a humidified incubator with 5% CO2 at 37 °C.
The cells were maintained in standard growth media as detailed above and seeded at exponential growth density (6000 cells per well) in 96-well plates (BD Falcon, France). The cells were then treated with vehicle or tests compounds (from 0.01 μM to 10 μM) for 24–72 h. The mitochondrial metabolization of the tetrazolium salt 3-(4,5-methyltiazol-2yl-)-2,5diphenyl-tetrazolium bromide] (MTT) (Applichen, Darmstadt, Germany) was used as an indicator of cell viability.
Figure 6 Effects of lignans on ER+ breast cancer cell viability. […] Then, the mitochondrial metabolization of MTT was used as an indicator of cell viability, as described in the Material and Methods. Data are expressed as mean ± SEM for at least three independent experiments, where each concentration is tested in triplicate. * p < 0.05, ** p < 0.01, and *** p < 0.001 versus VEH-treated cells.

Assay [2] concerns E2-induced ERE-luciferase activity in T47D-KBluc cells. Briefly: ERE-luciferase reporter in T47D-KBluc cells, antagonist assessment (presence of 0.1 nM E2). The conditions noted are these: Homo sapiens. The format is cell-based. The method, then: as §1
as §2, with “Then, the media was replaced with 1 mL/well of dosing media and test compounds incubated 24 h.” left out

Setting [3] is: read-out: IC50 (inhibition of Fluormone tracer binding to rhERα).
The mark [4] stands for this setting: read-out: IC50 (reduction of E2-induced Emax), lignans 1 μM to 10 μM, 1 h before 0.1 nM E2 for 18 h, predicted by nonlinear regression, Mean ± SE.

The term IC50 denotes the concentration that gives 50% inhibition.

For the compound `COc1ccc(C[C@H]2C(O)OC[C@@H]2Cc2ccc3c(c2)OCO3)cc1OC` (mixture of isomers) [Compound 5, (3R,4R)-4-(Benzo[d][1,3]dioxol-5-ylmethyl)-3-(3,4-dimethoxybenzyl) Tetrahydro Furan-2-ol], in assay [1], the Emax stood at 22.7 ± 4.26% and the “E/Emax (%) VEH” value is listed as “weak estrogenic activity”. Also, on rhERα-LBD (setting [3]), the half-inhibitory concentration (IC50) worked out at 3.24 ± 2.03 µM.

Consider `COc1ccc(C[C@H]2COC(O)[C@@H]2Cc2ccc(OC)c(OC)c2)cc1OC` (mixture of isomers) [Compound 6, (3R,4R)-3,4-Bis(3,4-dimethoxybenzyl)tetrahydrofuran-2-ol], for which the Emax in assay [1] was found to be 5.86 ± 0.84%. Besides, the “reduction of cell viability” value in the assay with T47D cells was found to be 16.6%.

With `COc1ccc(C[C@H]2C(=O)OC[C@@H]2Cc2ccc3c(c2)OCO3)cc1OC` [Compound 1, (−)-Bursehernin], in assay [1], the Emax was determined as 17.6 ± 5.4%. In addition, the IC50 was 0.39 ± 0.19 µM at rhERα-LBD (IC50 (inhibition of Fluormone tracer binding to rhERα)) and < 20 µM in assay [2] (lignans 1 μM to 10 μM, 1 h before 0.1 nM E2 for 18 h, predicted by nonlinear regression, Mean ± SE, read-out: IC50 (reduction of E2-induced Emax)). For the same compound, the “reduction of cell viability” value with T47D cells is “reduced cell viability”.

Turning to `O=C1OC[C@H](Cc2ccc(O)c(O)c2)[C@H]1Cc1ccc(O)c(O)c1` [Compound 3, (3R,4R)-3,4-Bis(3,4-dihydroxybenzyl)dihydrofuran-2(3H)-one], in assay [1], the Emax came to 24.5 ± 6.53% and the “E/Emax (%) VEH” value is “weak estrogenic activity”. Also, the IC50 at rhERα-LBD (setting [3]) was found to be 0.6 ± 0.11 µM.

In the case of `COc1ccc(C[C@H]2C(=O)OC[C@@H]2Cc2ccc(O)c(O)c2)cc1OC` [Compound 4, (3R,4R)-4-(3,4-Dihydroxybenzyl)-3-(3,4-dimethoxybenzyl)dihydrofuran-2(3H)-one], the Emax in assay [1] amounted to 15.8 ± 2.15%. Further, the IC50 on rhERα-LBD (setting [3]) was 6 µM and 6.04 µM; in assay [2] (setting [4]), > 10 µM.

As to `CC/C(=C(\c1ccc(O)cc1)c1ccc(OCCN(C)C)cc1)c1ccccc1` [Compound 4-OHTAM, 4-hydroxytamoxifen, reference compound], in assay [2] (read-out: IC50 (abolition of E2 effect by coincubation), antiestrogen coincubated with E2), the IC50 is 0.38 ± 0.009 µM.

With `COc1ccc(C[C@@H](CO)[C@H](CO)Cc2ccc3c(c2)OCO3)cc1OC` [Compound 7, (2R,3R)-2-(Benzo[d][1,3]dioxol-5-ylmethyl)-3-(3,4-dimethoxybenzyl)butane-1,4-diol], the Emax in assay [1] turned out to be 13.1 ± 2.58%. Besides, the IC50 at rhERα-LBD (setting [3]) worked out at 4 ± 1.6 µM.

With `COc1ccc(C[C@@H](CO)[C@H](CO)Cc2ccc(OC)c(OC)c2)cc1OC` [Compound 8, (2R,3R)-2,3-Bis(3,4-dimethoxybenzyl)butane-1,4-diol], the Emax in assay [1] was found to be 9.41 ± 1.88%. The “reduction of cell viability” value with T47D cells is “reduced cell viability”.

As to `COc1ccc(C[C@H]2COC[C@@H]2Cc2ccc3c(c2)OCO3)cc1OC` [Compound 9], in assay [1], the Emax amounted to 23.8 ± 6.34% and the “E/Emax (%) VEH” value was “weak estrogenic activity”. Further, the IC50 at rhERα-LBD (setting [3]) was 8 µM and 7.65 µM. In addition, the “reduction of cell viability” value with T47D cells turned out to be 55.6%.

Regarding `COc1ccc(C[C@H]2COC[C@@H]2Cc2ccc(OC)c(OC)c2)cc1OC` [Compound 10, (3R,4R)-3,4-Bis(3,4-dimethoxybenzyl)tetrahydrofuran], the Emax in assay [1] is 3.91 ± 1.55%.

For the compound `COc1ccc(C[C@H]2COC[C@@H]2Cc2ccc(O)c(O)c2)cc1OC` [Compound 11], in assay [1], the Emax was 12.1 ± 4.33% and the “E/Emax (%) VEH” value is on record as “weak estrogenic activity”. The IC50 at rhERα-LBD (setting [3]) turned out to be 0.5 ± 0.17 µM. In addition, the “reduction of cell viability” value in the assay on T47D cells is “reduced cell viability”. In addition, in assay [2] (setting [4]), the IC50 is < 20 µM.

Take `COc1ccc(C[C@@H](COS(C)(=O)=O)[C@H](COS(C)(=O)=O)Cc2ccc3c(c2)OCO3)cc1OC` [Compound 12, (2R,3R)-2-(Benzo[d][1,3]dioxol-5-ylmethyl)-3-(3,4-dimethoxybenzyl)butane-1,4-diyl Dimethanesulfonate]: in assay [1], the Emax was 22.2 ± 3.89% and the “E/Emax (%) VEH” value was “weak estrogenic activity”. For the same compound, the “reduction of cell viability” value in the assay with T47D cells was “reduced cell viability”.

As for `COc1ccc(C[C@@H](C)[C@H](C)Cc2ccc3c(c2)OCO3)cc1OC` [Compound 13, 5-((2R,3R)-4-(3,4-Dimethoxyphenyl)-2,3-dimethylbutyl)benzo[d][1,3]dioxole], the Emax in assay [1] amounted to 16.7 ± 3.37%. Moreover, at rhERα-LBD (setting [3]), the IC50 came to 5.02 ± 1.54 µM. The “reduction of cell viability” value in the assay on T47D cells is on record as “reduced cell viability”.

On to `COc1cc2c(cc1OC)-c1cc(O)c(O)cc1C[C@H]1COC(=O)[C@@H]1C2` [Compound 15, (3aR,13aR)-6,7-Dihydroxy-10,11-dimethoxy-3a,4,13,13a-tetrahydro Dibenzo [4,5:6,7]Cycloocta [1,2-c]Furan-1(3H)-one], for which the Emax in assay [1] was found to be 15.6 ± 5.66%.

On to `O=C1OC[C@@H]2Cc3cc(O)c(O)cc3-c3cc(O)c(O)cc3C[C@@H]12` [Compound 16, (3aR,13aR)-6,7,10,11-Tetrahydroxy-3a,4,13,13a-tetrahydrodibenzo [4,5:6,7] Cycloocta [1,2-c]Furan-1(3H)-One], for which the Emax in assay [1] is 11.3 ± 3.47%.

With `C[C@]12CC[C@@H]3c4ccc(O)cc4CC[C@H]3[C@@H]1CC[C@@H]2O` [Compound E2, 17β-estradiol, reference compound], the Emax in assay [1] came out at 100 ± 11.3%.
